According to US20160145247A1, “Aminomethyl-Biaryl Derivatives Complement Factor D inhibitors and uses thereof” (NOVARTIS AG, priority 2013, published 2016):

Molecular target: T1, factor D (Homo sapiens, UniProt P00746)
T1 construct: made in house; host or cells: E. coli
Assay: factor D inhibition assay of Biological Example 2
Format: biochemical

T1 sequence (P00746 26-253): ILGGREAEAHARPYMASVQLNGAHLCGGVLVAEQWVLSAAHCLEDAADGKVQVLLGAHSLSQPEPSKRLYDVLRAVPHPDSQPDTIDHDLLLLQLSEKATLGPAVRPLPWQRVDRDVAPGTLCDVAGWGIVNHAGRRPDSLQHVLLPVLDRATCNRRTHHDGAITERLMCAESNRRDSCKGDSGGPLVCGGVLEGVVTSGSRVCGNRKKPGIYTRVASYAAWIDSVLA

SMILES	IC50 [nM]
CC(O)c1cc(COc2ccccc2CC(=O)O)cc(-c2cccc([C@H](N)CO)c2)c1 (mixture of isomers) [116-E a), 2-(2-((3′-((S)-1-amino-2-hydroxyethyl)-5-(1-hydroxyethyl)-[1,1′-biphenyl]-3-yl)methoxy)phenyl)acetic acid]	9
N[C@H](CO)c1cccc(-c2cc(COc3ccccc3CC(=O)O)cc(C(O)C(F)(F)F)c2)c1 (mixture of isomers) [116-G a), 2-(2-((3′-((S)-1-amino-2-hydroxyethyl)-5-(2,2,2-trifluoro-1-hydroxyethyl)-[1,1′-biphenyl]-3-yl)methoxy)phenyl)acetic acid]	6
C[C@@H](N)c1cccc(-c2cc(COc3ccccc3CC(=O)O)cc(C(O)C(F)(F)F)c2)c1 (mixture of isomers) [116-H a), 2-(2-((3′-((R)-1-aminoethyl)-5-(2,2,2-trifluoro-1-hydroxyethyl)-[1,1′-biphenyl]-3-yl)methoxy)phenyl)acetic acid]	1
N[C@H](CO)c1cccc(-c2cc(COc3ccccc3CC(=O)O)cc(C(O)C3CCCCC3)c2)c1 (mixture of isomers) [116-I a), 2-(2-((3′-((S)-1-amino-2-hydroxyethyl)-5-(cyclohexyl(hydroxy)methyl)-[1,1′-biphenyl]-3-yl)methoxy)phenyl)acetic acid]	13
COC(C)c1cc(COc2ccccc2CC(=O)O)cc(-c2cccc([C@@H](C)N)c2)c1 (mixture of isomers) [Example 119-B, 2-(2-((3′-((R)-1-Aminoethyl)-5-(1-methoxyethyl)-[1,1′-biphenyl]-3-yl)methoxy)phenyl)acetic acid (mixture of diastereomers)]	13
COC(C)c1cc(COc2ccccc2CC(=O)O)cc(-c2cccc([C@H](N)CF)c2)c1 (mixture of isomers) [Example 121-C, 2-(2-((3′-((S)-1-Amino-2-fluoroethyl)-5-(1-methoxyethyl)-[1,1′-biphenyl]-3-yl)methoxy)phenyl)acetic acid]	380
N[C@H](CO)c1cccc(-c2cc(COc3ccccc3CC(=O)O)cc(NCC3CCCO3)c2F)c1 (mixture of isomers) [Example 157, 2-(2-((3′-((S)-1-Amino-2-hydroxyethyl)-6-fluoro-5-(((tetrahydrofuran-2-yl)methyl)amino)-[1,1′-biphenyl]-3-yl)methoxy)phenyl)acetic acid]	5
N[C@H](CO)c1cccc(-c2ccc3c(c2)C(Oc2ccccc2CC(=O)O)CCC3)c1 (mixture of isomers) [Example 181, 2-(2-((7-(3-((S)-1-Amino-2-hydroxyethyl)phenyl)-1,2,3,4-tetrahydronaphthalen-1-yl)oxy)phenyl)acetic acid (mixture of diastereomers)]	8
NC(CF)c1cccc(-c2cc(COc3ccccc3CC(=O)O)cc(NC[C@@H]3CCCO3)c2)c1F (mixture of isomers) [Example 204-B, 2-(2-((3′-(1-amino-2-fluoroethyl)-2′-fluoro-5-((((S)-tetrahydrofuran-2-yl)methyl)amino)-[1,1′-biphenyl]-3-yl)methoxy)phenyl)acetic acid (mixture of diastereomers)]	7
C[C@@H](N)c1cccc(-c2cc(COc3ccccc3CC(=O)O)c(F)c(NCC3CCCO3)c2)c1F (mixture of isomers) [Example 221 b), 2-(2-((3′-((R)-1-aminoethyl)-2′,4-difluoro-5-(((tetrahydrofuran-2-yl)methyl)amino)-[1,1′-biphenyl]-3-yl)methoxy)phenyl)acetic acid]	4
NCc1cccc(-c2cc(COc3ccccc3CC(=O)O)c(F)c(NCC3CCCO3)c2)c1 (racemic) [154-C b), (±)-2-(2-((3′-(aminomethyl)-4-fluoro-5-(((tetrahydrofuran-2-yl)methyl)amino)-[1,1′-biphenyl]-3-yl)methoxy)phenyl)acetic acid]	4
CC(C(=O)O)c1ccccc1NC(=O)c1cccc(-c2cc(F)cc(CN)c2)c1 (racemic) [Example 19-B, (±)-2-(2-(3′-(Aminomethyl)-5′-fluoro-[1,1′-biphenyl]-3-ylcarboxamido)phenyl)propanoic acid]	666
NCc1cccc(-c2cc(OCC3CCCO3)cc(C(=O)Nc3ccccc3CC(=O)O)c2)c1 (racemic) [Example 63, (±)-2-(2-(3′-(Aminomethyl)-5-((tetrahydrofuran-2-yl)methoxy)-[1,1′-biphenyl]-3-ylcarboxamido)phenyl)acetic acid]	16
CC(C#N)Oc1cc(C(=O)Nc2ccccc2CC(=O)O)cc(-c2cccc(CN)c2)c1 (racemic) [Example 64, (±)-2-(2-(3′-(Aminomethyl)-5-(1-cyanoethoxy)-[1,1′-biphenyl]-3-ylcarboxamido)phenyl)acetic acid]	63
NC(CO)c1cccc(-c2cccc(C(=O)Nc3ccccc3CC(=O)O)c2)c1 (racemic) [Example 86, (±)-2-(2-(3′-(1-Amino-2-hydroxyethyl)-[1,1′-biphenyl]-3-ylcarboxamido)phenyl)acetic acid]	1260
NC(CCO)c1cccc(-c2cccc(C(=O)Nc3ccccc3CC(=O)O)c2)c1 (racemic) [Example 87, (±)-2-(2-(3′-(1-amino-3-hydroxypropyl)-[1,1′-biphenyl]-3-ylcarboxamido)phenyl)acetic acid]	814
CC(O)c1cc(COc2ccccc2CC(=O)O)cc(-c2cccc(CN)c2)c1 (racemic) [Example 106, (±)-2-(2-((3′-(Aminomethyl)-5-(1-hydroxyethyl)-[1,1′-biphenyl]-3-yl)methoxy)phenyl)acetic acid]	5
NCc1cccc(-c2cc(COc3ccccc3CC(=O)O)cc(NCC3CCCO3)c2F)c1 (racemic) [Example 156-B, (±)-2-(2-((3′-(Aminomethyl)-6-fluoro-5-(((tetrahydrofuran-2-yl)methyl)amino)-[1,1′-biphenyl]-3-yl)methoxy)phenyl)acetic acid]	2
NCc1cccc(-c2ccc3c(c2)C(Oc2ccccc2CC(=O)O)CC3)c1 (racemic) [Example 162, (±)-2-(2-((6-(3-(Aminomethyl)phenyl)-2,3-dihydro-1H-inden-1-yl)oxy)phenyl)acetic acid]	2
CC(Oc1ccccc1CC(=O)O)c1cccc(-c2cccc(CN)c2)c1 (racemic) [Example 163, (±)-2-(2-(1-(3′-(aminomethyl)-[1,1′-biphenyl]-3-yl)ethoxy)phenyl)acetic acid]	61
CNC(CO)c1cccc(-c2cccc(COc3ccccc3CC(=O)O)c2)c1 (racemic) [Example 171, (±)-2-(2-((3′-(2-Hydroxy-1-(methylamino)ethyl)-[1,1′-biphenyl]-3-yl)methoxy)phenyl)acetic acid]	2540
N[C@H](CO)c1cccc(-c2ccc3c(c2)C(Oc2ccccc2CC(=O)O)CC3)c1 (mixture of isomers) [Example 172, (±)-2-(2-((6-(3-((S)-1-Amino-2-hydroxyethyl)phenyl)-2,3-dihydro-1H-inden-1-yl)oxy)phenyl)acetic acid]	5880
CC(Oc1ccccc1CC(=O)O)c1cccc(-c2cccc(CN)c2F)c1 (racemic) [Example 183, (±)-2-(2-(1-(3′-(Aminomethyl)-2′-fluoro-[1,1′-biphenyl]-3-yl)ethoxy)phenyl)acetic acid]	29
